Laboratory results from PubChem BioAssay (NCI).
Several values for one entry are separate records, joined by “and”; a condition that tells them apart may be missing. Equal entries are not always repeated.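 The compound was tested at five concentrations on cells cultured in 96-well plates, with a 48-hour exposure period. GI50 is the concentration that inhibits growth by half. TGI marks complete inhibition of growth.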

Legend:
Assay in all cases: NCI anticancer screen, dose series, 48 h
SF-539 CNS = tested on: SF-539 CNS
A549 NSCLC = tested on: A549 NSCLC
CCRF-CEM leukemia = tested on: CCRF-CEM leukemia
UACC-257 melanoma = tested on: UACC-257 melanoma
HOP-92 NSCLC = tested on: HOP-92 NSCLC
K-562 leukemia = tested on: K-562 leukemia
HL-60(TB) leukemia = tested on: HL-60(TB) leukemia
NCI/ADR-RES ovarian = tested on: NCI/ADR-RES ovarian
MCF7 breast = tested on: MCF7 breast
DU-145 prostate = tested on: DU-145 prostate

Row | SMILES | TGI (SF-539 CNS) [µM] | TGI (A549 NSCLC) [µM] | TGI (CCRF-CEM leukemia) [µM] | TGI (UACC-257 melanoma) [µM] | TGI (HOP-92 NSCLC) [µM] | TGI (K-562 leukemia) [µM] | TGI (HL-60(TB) leukemia) [µM] | TGI (NCI/ADR-RES ovarian) [µM] | TGI (MCF7 breast) [µM] | GI50 (HL-60(TB) leukemia) [µM] | GI50 (NCI/ADR-RES ovarian) [µM] | GI50 (SF-539 CNS) [µM] | GI50 (A549 NSCLC) [µM] | GI50 (DU-145 prostate) [µM] | TGI (DU-145 prostate) [µM] | GI50 (CCRF-CEM leukemia) [µM] | GI50 (UACC-257 melanoma) [µM] | GI50 (HOP-92 NSCLC) | GI50 (K-562 leukemia) [µM] | GI50 (MCF7 breast) [µM]
1 | CC(=O)Nc1ccc(OCC(O)CO)cc1 (stereo unspecified) | > 100 | > 100 | > 100 | > 100 | > 100 | > 100 | – | – | – | – | – | – | – | – | – | – | – | – | – | –
2 | N#CC1([N+](=O)[O-])C=C1c1ccccc1 (stereo unspecified) | > 100 | > 100 | 72.2 | > 100 | – | 71.5 | 46.3 | – | – | – | – | – | – | – | – | – | – | – | – | –
3 | N#CC(CC(=O)O)=C(c1ccccc1)c1ccccc1 | > 100 | > 100 | – | > 100 | > 100 | > 100 | – | > 100 | > 100 | – | – | – | – | – | – | – | – | – | – | –
4 | O=S1(=O)C=C(c2ccccc2)C(c2ccccc2)=C1 | 5.94 | 5.11 | 7.6 | 2.96 | 3.19 | > 100 | 5.21 | 9.31 | – | 2.14 | 2.73 | 2.14 | 2.13 | 1.64 | 3 | 3 | 1.52 | 1.65 µM | 1.83 | –
5 | CC(=O)OC1(C#N)CC2OC1C1NC21 (stereo unspecified) | > 100 | > 100 | > 100 | – | > 100 | > 100 | > 100 | – | – | – | – | – | – | – | – | – | – | – | – | –
6 | CCCCCCC(=O)CC(=O)C(=O)Nc1ccccc1C | > 100 | > 100 | > 100 | > 100 | > 100 | > 100 | > 100 | – | – | – | – | – | – | – | – | – | – | – | – | –
7 | O=C1OC(=O)C2C1C1C(c3ccccc3)=C(c3ccccc3)C2(O)C2C(=O)OC(=O)C12 (stereo unspecified) | – | > 100 | > 100 | > 100 | > 100 | > 100 | – | – | – | – | – | – | – | – | – | – | – | – | – | –
8 | CCOc1cc[n+](C(=C=[N-])C#N)cc1 | > 100 | > 100 | > 100 | > 100 | > 100 | > 100 | > 100 | – | – | – | – | – | – | – | – | – | – | – | – | –
9 | CC(=O)CC(=O)ON(C)C(=O)Cc1ccccc1 | > 100 | > 100 | > 100 | > 100 | > 100 | > 100 | > 100 | – | – | – | – | – | – | – | – | – | – | – | – | –
10 | O=S1Cc2ccccc2CSS1 (stereo unspecified) | 29.8 | 46.7 | – | 29.1 | 31.8 | 38.1 | 20 | – | – | – | – | – | – | – | – | – | – | – | – | –
11 | CC1CCC2[C@@H](C)COC3O[C@]4(C)CCC1C32OO4 (stereo partly specified) | > 100 | > 100 | > 100 | > 100 | > 100 | > 100 | – | – | – | – | – | – | – | – | – | – | – | – | – | –
12 | NC(=S)N=Nc1c(O)[nH]c2ccccc12 | 361 | 897 | > 1000 | > 1000 | 224 | > 1000 | > 1000 | – | 611 | 275 | – | 170 | 274 | 126 | 284 | 253 | 804 | 64.8 µM and 106 µM | – | 168
13 | COc1c(OC2OC(CO)C(O)C(O)C2O)cc2c(c1OC)-c1ccc(OC)c(=O)cc1[C@@H](NC(C)=O)CC2 (stereo partly specified) | > 100 | > 100 | > 100 | > 100 | > 100 | > 100 | > 100 | – | – | – | – | – | – | – | – | – | – | – | – | –
14 | Nc1ncnc2c1ncn2COC/C=C/I | > 100 | > 100 | > 100 | > 100 | > 100 | > 100 | – | – | – | – | – | – | – | – | – | – | – | – | – | –
15 | CCOc1ccccc1NC(=O)C(=O)c1c(O)c2ccc(O)cc2oc1=O | > 100 | > 100 | > 100 | > 100 | – | > 100 | > 100 | – | – | – | – | – | – | – | – | – | – | – | – | –
16 | N#CC12CC3(CCC1CCC1(C2)OCCO1)OCCO3 (stereo unspecified) | > 100 | > 100 | > 100 | > 100 | > 100 | > 100 | > 100 | – | – | – | – | – | – | – | – | – | – | – | – | –
17 | Cc1ccc(NC(=O)CC2C(=O)Nc3ccccc3S2(=O)=O)cc1C (stereo unspecified) | > 100 | > 100 | > 100 | > 100 | > 100 | > 100 | > 100 | – | – | – | – | – | – | – | – | – | – | – | – | –
18 | CSc1nc(-c2cccc(NC(=O)CCl)c2)c(C#N)c(=O)n1C | 2.88 | 17.4 | 9.37 | 6.08 | 3.38 | > 100 | 4.88 | – | 2.39 | 1.81 | – | 1.47 | 3.28 | 1.77 | 3.44 | 0.0989 | 1.6 | 1.75 µM | 1.28 | 0.24
19 | COC(=O)C(C(=O)C(=O)Nc1ccc(N)cc1[N+](=O)[O-])c1nc2ccc(Cl)cc2[nH]c1=O (stereo unspecified) | > 100 | > 100 | > 100 | > 100 | > 100 | > 100 | > 100 | – | – | – | – | – | – | – | – | – | – | – | – | –
